Source: patent US20230288433A1, “DETECTION OF PHOSPHOINOSITIDES IN BLOOD CELLS AS A BIOMARKER FOR ALPHA SYNUCLEIN ASSOCIATED PATHOLOGIES AND A METHOD OF TREATMENT OF PARKINSON'S DISEASE AND THE RELATED NEURODEGENERATIONS” (YISSUM RESEARCH DEVELOPMENT COMPANY OF THE HEBREW …, priority 2021, published 2023)

Key:
Assay type in all cases: cell-based
SH-SY5Y cells [1] = test: 568-Tf endocytosis by ICC in Tet-on inducible α-Syn SH-SY5Y cells; settings: doxycycline 72 hours; cells not induced set at 100%
SH-SY5Y cells [2] = test: PI4,5P2 levels by FACS in Tet-on inducible α-Syn SH-SY5Y cells
Description: Analysis was performed as previously described with some modifications. Cells were suspended and washed in clear DMEM; followed by 20 minutes fixation in 2% (v/w) paraformaldehyde at 4° C.; and permeabilization in 0.2% saponin in 1% BSA (w/v) for 15 minutes at 4° C. Cells were then incubated with anti α-Syn antibody (MJFR1, 1:2,000) and anti PI4,5P2 antibody (1:200, see Table 2) for 90 minutes at 4° C. with gentle rolling; washed and probed with the respective secondary antibody for 30 minutes at room temperature. FACS analysis in SK-mel2 cells was performed 7-14 days following viral transduction. During this time effective α-Syn knockdown was confirmed using rt-PCR and Western blotting. HEK 293T cells were analyzed by FACS forty-eight hours from transfection. Analyses were performed using BD LSRFortessa Cell Analyzer, equipped with 5 lasers (355, 405, 488, 561 and 640 nm) and the FLOWJO, LLC software. Mock-GFP, Sj-1 or PIPKIγ expression were directly detected at 488 nm based on a GFP-tag. […] A total of 2,000-4,000 gated cells were counted in each experiment unless indicated differently.
To test the mechanism through which α-Syn increases cellular PI4,5P2 levels, the inventors tested the potential involvement of Nir2-expression. […] 72 hours post DNA transfection, PI4,5P2 levels were determined by FACS. […] PI4,5P2 levels were determined by FACS following 3 days of incubation with doxycycline. […]

α-Syn = α-Syn expression by qPCR in Tet-on inducible SH-SY5Y cells; settings: with versus without doxycycline for 72 hours
Description: FIGS. 4A-4J include micrographs and graphs showing that α-Syn effect to elongate axons and collaterals is mediated through PI4,5P2. (4A) PI4,5P2 levels determined by FACS, in HEK 293T cells, following 48 hours from cell transfection with α-Syn and/or Sj-1 phosphatase, as indicated. Mean±SD of two independent experiments, n>3,000 cells in each treatment; P<0.05, one-way ANOVA. (4B) PI4,5P2 levels determined by FACS in HEK 293T cells transfected with α-Syn and/or PIPKIγ as indicated. Mean±SD of two independent experiments, n>3,000 cells in each treatment; P<0.05, one-way ANOVA. […] GFP signal was captured by direct fluorescence. […] (4E) Total length of collaterals per axon (in μm); and (4F) PI4,5P2 levels within the axon and its collaterals (per axon area) quantified by Fiji program. […] Western blot showing mCherry Nir2 signal detected with anti Nir2 ab (Abcam). PI4,5P2 levels determined by FACS. […] PI4,5P2 levels determined by FACS. […] (4I) Quantitative PCR (qPCR) detection of α-Syn following its induced expression in SH-SYSY cells without and with the addition of doxycycline for 72 hours. α-Syn mRNA levels normalized to the levels of G6PD gene detected in the same sample. (4J) Quantitative detection of NIR2 expression by qPCR in these cells. […]

## C[C@H]1c2cccc(O)c2C(=O)C2=C(O)[C@]3(O)C(=O)C(C(N)=O)=C(O)[C@@H](N(C)C)[C@@H]3[C@@H](O)[C@@H]21 [doxycycline]
SH-SY5Y cells [1]
  internalization of 568-Tf: 133%
SH-SY5Y cells [2]; FACS after 3 days of doxycycline, shCntrl cells
  PI4,5P2 signal: ~146%
SH-SY5Y cells [2]; doxycycline 72 hours, cells not induced set at 100%
  PI4,5P2 levels: 151%
α-Syn
  α-Syn levels of expression: ~25 folds
